Legend:
KRAS G12D = KRAS G12D (Homo sapiens, UniProt P01116, G12D); test: GDP-GTP exchange assay (KRAS G12D); format: biochemical; conditions: bodipy-GDP/GppNHp exchange with SOS1; 4 h pre-incubation, 2 h reaction;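 note: one dagger IC50 up to 100 nM and two daggers above 100 nM up to 1 μM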
In short: (§1)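 Bodipy-GDP-loaded KRAS (2.5 nM final) was pre-incubated 4 h at r.t. with inhibitor in Hepes pH 7.5 buffer with MgCl2, then exchange started with GppNHp (500 μM) and SOS1 (150 nM) final. Fluorescence (ex 485/em 520 nm) read after 2 h for G12D, 3 h for G12V; IC50 from four-parameter logistic fit.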

KRAS G12V = KRAS G12V (Homo sapiens, UniProt P01116, G12V); test: GDP-GTP exchange assay (KRAS G12V); format: biochemical; conditions: bodipy-GDP/GppNHp exchange with SOS1; 3 h incubation after GppNHp-SOS1;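 note: one dagger IC50 up to 100 nM and two daggers above 100 nM up to 1 μM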
Sequence of KRAS G12V (P01116 1-188 isoform P01116-2 G12V): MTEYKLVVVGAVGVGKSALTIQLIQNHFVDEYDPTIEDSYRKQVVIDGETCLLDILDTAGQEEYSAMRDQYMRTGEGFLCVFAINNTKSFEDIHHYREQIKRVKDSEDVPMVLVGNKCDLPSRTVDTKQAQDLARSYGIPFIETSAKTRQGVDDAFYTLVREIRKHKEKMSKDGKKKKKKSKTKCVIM
In short: as §1

[1] = Caco2 assay (permeability, Papp A-B); format: in vitro ADME; conditions: human, Caco-2, absorptive direction (A-B), 50 μM test compound, 4% BSA in receiver
Description: Caco-2 cells are grown at 37° C. in an atmosphere of 5% CO2 in DMEM growth medium supplemented with 10% (v/v) fetal bovine serum, 1% (v/v) nonessential amino acids, penicillin (100 U/mL), and streptomycin (100 μg/mL). Confluent cell monolayers are subcultured every 7 days or 4 days for Caco-2 by treatment with 0.05% trypsin containing […]. Caco-2 cells are seeded in 96-well Transwell plates. The seeding density for Caco-2 cells is 14,000 cells/well. DMEM growth medium is replaced every other day after seeding. Cell monolayers are used for transport assays between 22 and 25 days for Caco-2 cells.
Cell culture medium is removed and replaced with HBSS. To measure the TEER, the HBSS is added into the donor compartment (apical side) and receiver compartment (basolateral side). The TEER is measured by using a REMS Autosampler to ensure the integrity of the cell monolayers. Caco-2 cell monolayers with TEER values 300 Ω·cm^2 are used for transport experiments. To determine the Papp in the absorptive direction (A-B), solution of test compound (50 μM) in HBSS is added to the donor compartment (apical side), while HBSS solution with 4% BSA is added to the receiver compartment (basolateral side). The apical volume was 0.075 mL, and the basolateral volume is 0.25 mL. The incubation period is 120 min. at 37° C. in an atmosphere of 5% CO2. At the end of the incubation period, samples from the donor and receiver sides are removed and an equal volume of MeCN is added for protein precipitation. The supernatants are collected after centrifugation (3000 rpm, Allegra X-14R Centrifuge from Beckman Coulter, Indianapolis, IN) for LCMS analysis. The permeability value is determined according to the equation:
Papp(cm/s)=(F*VD)/(SA*MD),
where the flux rate (F, mass/time) is calc. from the slope of cumulative amounts of compound of interest on the receiver side, SA is the surface area of the cell membrane, VD is the donor volume, and MD is the initial amount of the solution in the donor chamber.
The symbol “+” indicates a Caco-2 value of ≤0.5, “++” indicates a Caco-2 value of >0.5 but ≤1; and “+++” indicates a Caco-2 value of >1. “NA” indicates Caco-2 value not available.

Sequence of KRAS G12D (P01116 1-188 isoform P01116-2 G12D): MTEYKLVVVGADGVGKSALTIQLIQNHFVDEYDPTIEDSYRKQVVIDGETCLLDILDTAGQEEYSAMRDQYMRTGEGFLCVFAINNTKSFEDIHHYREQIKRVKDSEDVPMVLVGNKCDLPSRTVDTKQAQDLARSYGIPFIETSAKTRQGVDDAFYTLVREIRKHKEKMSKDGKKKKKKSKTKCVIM

| SMILES | G12D_exchange (KRAS_G12D exchange assay IC50) (KRAS G12D) | G12V_exchange (KRAS_G12V exchange assay IC50) (KRAS G12V) | Papp A→B at 120 min, 50 μM [1] |
| --- | --- | --- | --- |
| Cc1nc2c(F)c(-c3cccc(Cl)c3Cl)c(CCC#N)cc2c2c1cc([C@H]1[C@H]3C[C@H](CN(c4cccc(OC(F)(F)F)c4)C3)N1C(=O)C1CC1)n2[C@H]1[C@H]2CN[C@@H]1C2 (atropisomer, axis not shown; (Ra)) [Example 20, 3-((Ra)-1-((1R,4R,5S)-2-azabicyclo[2.1.1]hexan-5-yl)-2-((1S,5R,7R)-6-(cyclopropanecarbonyl)-3-(3-(trifluoromethoxy)phenyl)-3,6-diazabicyclo[3.2.1]octan-7-yl)-7-(2,3-dichlorophenyl)-6-fluoro-4-methyl-1H-pyrrolo[3,2-c]quinolin-8-yl)propanenitrile] | †† | † | ≤ 0.5 ×10⁻⁶ cm/s |
| Cc1nc2c(F)c(-c3cccc(Cl)c3Cl)c(CCC#N)cc2c2c1cc([C@H]1[C@H]3C[C@H](CN(c4cncc(C(F)(F)F)c4)C3)N1C(=O)C1CC1)n2[C@H]1[C@H]2CN[C@@H]1C2 (atropisomer, axis not shown; (Ra)) [Example 21, 3-((Ra)-1-((1R,4R,5S)-2-azabicyclo[2.1.1]hexan-5-yl)-2-((1S,5R,7R)-6-(cyclopropanecarbonyl)-3-(5-(trifluoromethyl)pyridin-3-yl)-3,6-diazabicyclo[3.2.1]octan-7-yl)-7-(2,3-dichlorophenyl)-6-fluoro-4-methyl-1H-pyrrolo[3,2-c]quinolin-8-yl)propanenitrile] | † | † | ≤ 0.5 ×10⁻⁶ cm/s |
| Cc1nc2c(F)c(-c3cccc(Cl)c3Cl)c(CCC#N)cc2c2c1cc([C@H]1[C@H]3C[C@H](CN(c4ccc(C(F)F)nc4)C3)N1C(=O)C1CC1)n2[C@H]1[C@H]2CN[C@@H]1C2 (atropisomer, axis not shown; (Ra)) [Example 22, 3-((Ra)-1-((1R,4R,5S)-2-azabicyclo[2.1.1]hexan-5-yl)-2-((1S,5R,7R)-6-(cyclopropanecarbonyl)-3-(6-(difluoromethyl)pyridin-3-yl)-3,6-diazabicyclo[3.2.1]octan-7-yl)-7-(2,3-dichlorophenyl)-6-fluoro-4-methyl-1H-pyrrolo[3,2-c]quinolin-8-yl)propanenitrile] | † | † | ≤ 0.5 ×10⁻⁶ cm/s |
| Cc1nc2c(F)c(-c3cccc(Cl)c3Cl)c(CCC#N)cc2c2c1cc([C@H]1[C@H]3C[C@H](CN(c4ccc(F)cc4)C3)N1C(=O)C1CC1)n2[C@H]1[C@H]2CN[C@@H]1C2 (atropisomer, axis not shown; (Ra)) [Example 23, 3-((Ra)-1-((1R,4R,5S)-2-azabicyclo[2.1.1]hexan-5-yl)-2-((1S,5R,7R)-6-(cyclopropanecarbonyl)-3-(4-fluorophenyl)-3,6-diazabicyclo[3.2.1]octan-7-yl)-7-(2,3-dichlorophenyl)-6-fluoro-4-methyl-1H-pyrrolo[3,2-c]quinolin-8-yl)propanenitrile] | † | † | ≤ 0.5 ×10⁻⁶ cm/s |
| Cc1nc2c(F)c(-c3cccc(Cl)c3Cl)c(CCC#N)cc2c2c1cc([C@H]1[C@H]3C[C@H](CN(c4ccc(OC(F)F)cc4)C3)N1C(=O)C1CC1)n2[C@H]1[C@H]2CN[C@@H]1C2 (atropisomer, axis not shown; (Ra)) [Example 25, 3-((Ra)-1-((1R,4R,5S)-2-azabicyclo[2.1.1]hexan-5-yl)-2-((1S,5R,7R)-6-(cyclopropanecarbonyl)-3-(4-(difluoromethoxy)phenyl)-3,6-diazabicyclo[3.2.1]octan-7-yl)-7-(2,3-dichlorophenyl)-6-fluoro-4-methyl-1H-pyrrolo[3,2-c]quinolin-8-yl)propanenitrile] | †† | † | ≤ 0.5 ×10⁻⁶ cm/s |
| Cc1nc2c(F)c(-c3cccc(Cl)c3Cl)c(CCC#N)cc2c2c1cc([C@H]1[C@H]3C[C@H](CN(c4cccc(OC(F)F)c4)C3)N1C(=O)C1CC1)n2[C@H]1[C@H]2CN[C@@H]1C2 (atropisomer, axis not shown; (Ra)) [Example 26, 3-((Ra)-1-((1R,4R,5S)-2-azabicyclo[2.1.1]hexan-5-yl)-2-((1S,5R,7R)-6-(cyclopropanecarbonyl)-3-(3-(difluoromethoxy)phenyl)-3,6-diazabicyclo[3.2.1]octan-7-yl)-7-(2,3-dichlorophenyl)-6-fluoro-4-methyl-1H-pyrrolo[3,2-c]quinolin-8-yl)propanenitrile] | †† | † | ≤ 0.5 ×10⁻⁶ cm/s |
| Cc1nc2c(F)c(-c3cccc(Cl)c3Cl)c(CCC#N)cc2c2c1cc([C@H]1[C@H]3C[C@H](CN(c4ccc(OC(F)(F)F)cc4F)C3)N1C(=O)C1CC1)n2[C@H]1[C@H]2CN[C@@H]1C2 (atropisomer, axis not shown; (Ra)) [Example 28, 3-((Ra)-1-((1R,4R,5S)-2-azabicyclo[2.1.1]hexan-5-yl)-2-((1S,5R,7R)-6-(cyclopropanecarbonyl)-3-(2-fluoro-4-(trifluoromethoxy)phenyl)-3,6-diazabicyclo[3.2.1]octan-7-yl)-7-(2,3-dichlorophenyl)-6-fluoro-4-methyl-1H-pyrrolo[3,2-c]quinolin-8-yl)propanenitrile] | †† | † | ≤ 0.5 ×10⁻⁶ cm/s |

Other lines, results leading:

| G12D_exchange (KRAS_G12D exchange assay IC50) (KRAS G12D) | G12V_exchange (KRAS_G12V exchange assay IC50) (KRAS G12V) | Papp A→B at 120 min, 50 μM [1] | SMILES |
| --- | --- | --- | --- |
| †† | † | ≤ 0.5 ×10⁻⁶ cm/s | COc1ccc(N2C[C@@H]3C[C@H](C2)N(C(=O)C2CC2)[C@H]3c2cc3c(C)nc4c(F)c(-c5cccc(Cl)c5Cl)c(CCC#N)cc4c3n2[C@H]2[C@H]3CN[C@@H]2C3)cn1 (atropisomer, axis not shown; (Ra)) [Example 24, 3-((Ra)-1-((1R,4R,5S)-2-azabicyclo[2.1.1]hexan-5-yl)-2-((1S,5R,7R)-6-(cyclopropanecarbonyl)-3-(6-methoxypyridin-3-yl)-3,6-diazabicyclo[3.2.1]octan-7-yl)-7-(2,3-dichlorophenyl)-6-fluoro-4-methyl-1H-pyrrolo[3,2-c]quinolin-8-yl)propanenitrile] |
| † | † | ≤ 0.5 ×10⁻⁶ cm/s | Cc1nc2c(F)c(-c3cccc(Cl)c3Cl)c(CCC#N)cc2c2c1cc([C@H]1[C@H]3C[C@H](CN(c4cnn(C(F)(F)F)c4)C3)N1C(=O)C1CC1)n2[C@H]1[C@H]2CN[C@@H]1C2 (atropisomer, axis not shown; (Ra)) [Example 27, 3-((Ra)-1-((1R,4R,5S)-2-azabicyclo[2.1.1]hexan-5-yl)-2-((1S,5R,7R)-6-(cyclopropanecarbonyl)-3-(1-(trifluoromethyl)-1H-pyrazol-4-yl)-3,6-diazabicyclo[3.2.1]octan-7-yl)-7-(2,3-dichlorophenyl)-6-fluoro-4-methyl-1H-pyrrolo[3,2-c]quinolin-8-yl)propanenitrile] |
| † | † | ≤ 0.5 ×10⁻⁶ cm/s | Cc1nc2c(F)c(-c3cccc(Cl)c3Cl)c(CCC#N)cc2c2c1cc([C@H]1[C@H]3C[C@H](CN(c4cn(C)nc4C(F)(F)F)C3)N1C(=O)C1CC1)n2[C@H]1[C@H]2CN[C@@H]1C2 (atropisomer, axis not shown; (Ra)) [Example 29, 3-((Ra)-1-((1R,4R,5S)-2-azabicyclo[2.1.1]hexan-5-yl)-2-((1S,5R,7R)-6-(cyclopropanecarbonyl)-3-(1-methyl-3-(trifluoromethyl)-1H-pyrazol-4-yl)-3,6-diazabicyclo[3.2.1]octan-7-yl)-7-(2,3-dichlorophenyl)-6-fluoro-4-methyl-1H-pyrrolo[3,2-c]quinolin-8-yl)propanenitrile] |

From patent publication US20250195536A1, “BICYCLOOCTANE KRAS INHIBITORS” (Incyte Corporation, priority 2023, published 2025)
